# Where “and” joins values, the source holds several entries; their conditions need not be identical. Identical values can stand only once. Where a SMILES comes first, the peptide text is derived from it. [ ]: non-standard residue; d: D form. Hyp = O=C(O)[C@@H]1C[C@@H](O)CN1
# System: CCL4/MIP-1 beta
# Experiment: Example 9 Luminex, LPS hPBMCs: CCL4/MIP-1 beta
# Assay type: cell-based, human
# Details: PBMC + LPS(5 ug/ml); for MFI (Bead name: CCL4/MIP-1 beta): dilution 10
# Method: Treatment Human PBMCs were pretreated with YY-101, YDE-011 and YDE-043 or reference compound; Xiidra® at various concentration (ranging from 1 nM to 100 uM) for 2 h before stimulation. An equal volume of 0.5% DMSO was used as a vehicle control. Then, the cells were treated with LPS at 5 ug/ml. The supernatants from treated cells were harvested at 24 h and placed in a 96 well for Luminex cytokine & chemokine profiling using a Luminex 200 multiplex assay (Luminex; R&D system, USA).
# The main study arm with triplicate wells per group in a 24-well plate: • 1. Blank • 2. PBMC: 0.5% DMSO • 3. PBMC+LPS (5 ug/ml) • 4. PBMC+YY-101 100 uM • 5. PBMC+YY-101 10 uM • 6. PBMC+YY-101 1 uM • 7. PBMC+YY-101 0.1 uM • 8. PBMC+YY-101 0.01 uM • 9. PBMC+LPS (5 ug/ml)+Xiidra®100 uM • 10. PBMC+LPS (5 ug/ml)+Xiidra® 10 uM • 11. PBMC+LPS (5 ug/ml)+Xiidra® 1 uM • 12. PBMC+LPS (5 ug/ml)+Xiidra®0.1 uM • 13. PBMC+LPS (5 ug/ml)+Xiidra®0.01 uM • 14. PBMC+LPS (5 ug/ml)+Xiidra®0.001 uM • 15. PBMC+LPS (5 ug/ml)+YY-101 100 uM • 16. PBMC+LPS (5 ug/ml)+YY-101 10 uM • 17. PBMC+LPS (5 ug/ml)+YY-101 1 uM • 18. PBMC+LPS (5 ug/ml)+YY-101 0.1 uM • 19. PBMC+LPS (5 ug/ml)+YY-101 0.01 uM • 20. PBMC+LPS (5 ug/ml)+YY-101 0.001 uM • 21. PBMC+LPS (5 ug/ml)+YDE-011 100 uM • 22. PBMC+LPS (5 ug/ml)+YDE-011 10 uM • 23. PBMC+LPS (5 ug/ml)+YDE-011 1 uM • 24. PBMC+LPS (5 ug/ml)+YDE-011 0.1 uM • 25. PBMC+LPS (5 ug/ml)+YDE-011 0.01 uM • 26. PBMC+LPS (5 ug/ml)+YDE-011 0.001 uM • 27. PBMC+LPS (5 ug/ml)+YDE-043 100 uM • 28. PBMC+LPS (5 ug/ml)+YDE-043 10 uM • 29. PBMC+LPS (5 ug/ml)+YDE-043 1 uM • 30. PBMC+LPS (5 ug/ml)+YDE-043 0.1 uM • 31. PBMC+LPS (5 ug/ml)+YDE-043 0.01 uM • 32. PBMC+LPS (5 ug/ml)+YDE-043 0.001 uM
# Multiplex assay was used to measure 30 cytokines and chemokines. The 1:2, 1:10 and 1:200 diluted cell supernatant and serial dilution of the standard were dispensed into a 96 well plate at 50 ul/well. Then, the pre-mixed cocktail of antibody-coated magnetic beads was dispensed at 50 ul/well and incubated at room temperature for 2 h in a horizontal orbital microplate shaker at 800±500 rpm. The beads were washed using a magnetic device to prevent loss. The biotin-antibody was dispensed in 50 ul of each well and incubated at room temperature for 1 h in a shaker at 800±500 rpm. After washing, streptavidin-PE was added at 50 ul/well and incubated at room temperature for 30 min in a shaker under the same conditions. Finally, after washing, wash buffer (100 ul/well) was added to the plate and incubated in a shaker for 2 min. The Luminex™ 200 setting were set according to the manufacturer's protocol. The data was calculated with a standard five-parameter logistic nonlinear regression analysis of the data (xPonent software 4.2, USA). The levels of cytokine/chemokine are normalized to the live cell counts (1×10^5 cells/mL) and presented as concentrations per mL (pg/mL or ng/mL).
# [1] = test article 0.001 uM, single replicates
# [2] = test article 0.01 uM, single replicates
# [3] = test article 0.1 uM, single replicates
# [4] = test article 1 uM, single replicates
# [5] = test article 10 uM, single replicates
# [6] = test article 100 uM, single replicates
smiles,measurement,setting,value
CC(C)C[C@H](NC(=O)CNC(=O)[C@H](CC(C)C)NC(=O)[C@H](CCC(N)=O)NC(=O)CNC(=O)[C@@H]1C[C@@H](O)CN1)C(=O)N[C@@H](C)C(=O)NCC(=O)N1CCC[C@H]1C(=O)N[C@@H](CCCCN)C(=O)O [YDE-011] (H-[Hyp]GQLGLAGPK-OH),Concentration (CCL4/MIP-1 beta),"test article 0.001 uM, Mean",7251.7 pg/mL
same,conc/live cell (CCL4/MIP-1 beta),"test article 0.001 uM, Mean",1370.9 pg/10^5
same,MFI (Bead name: CCL4/MIP-1 beta),"test article 0.001 uM, Mean",157.3
same,MFI (Bead name: CCL4/MIP-1 beta),[1],158.0 (2×) and 156.0
same,Concentration (CCL4/MIP-1 beta),[1],7267.3 pg/ml (2×) and 7220.3 pg/ml
same,conc/live cell (CCL4/MIP-1 beta),[1],1615.0 pg/10^5 and 1244.9 pg/10^5 and 1253.0 pg/10^5
same,Concentration (CCL4/MIP-1 beta),"test article 0.01 uM, Mean",7395.1 pg/mL
same,conc/live cell (CCL4/MIP-1 beta),"test article 0.01 uM, Mean",1270.9 pg/10^5
same,MFI (Bead name: CCL4/MIP-1 beta),"test article 0.01 uM, Mean",163.5
same,MFI (Bead name: CCL4/MIP-1 beta),[2],164.0 and 159.0 and 167.5
same,Concentration (CCL4/MIP-1 beta),[2],7407.0 pg/mL and 7290.8 pg/mL and 7487.6 pg/mL
same,conc/live cell (CCL4/MIP-1 beta),[2],1194.7 pg/10^5 and 1429.6 pg/10^5 and 1188.5 pg/10^5
same,Concentration (CCL4/MIP-1 beta),"test article 0.1 uM, Mean",7029.3 pg/mL
same,conc/live cell (CCL4/MIP-1 beta),"test article 0.1 uM, Mean",1234.5 pg/10^5
same,MFI (Bead name: CCL4/MIP-1 beta),"test article 0.1 uM, Mean",148.0
same,MFI (Bead name: CCL4/MIP-1 beta),[3],152.0 and 151.0 and 141.0
same,Concentration (CCL4/MIP-1 beta),[3],7125.7 pg/mL and 7101.9 pg/mL and 6860.2 pg/mL
same,conc/live cell (CCL4/MIP-1 beta),[3],1079.6 pg/10^5 and 1420.4 pg/10^5 and 1203.6 pg/10^5
same,Concentration (CCL4/MIP-1 beta),"test article 1 uM, Mean",7165.0 pg/mL
same,conc/live cell (CCL4/MIP-1 beta),"test article 1 uM, Mean",1429.9 pg/10^5
same,MFI (Bead name: CCL4/MIP-1 beta),"test article 1 uM, Mean",153.7
same,MFI (Bead name: CCL4/MIP-1 beta),[4],151.0 and 152.0 and 158.0
same,Concentration (CCL4/MIP-1 beta),[4],7101.9 pg/mL and 7125.7 pg/mL and 7267.3 pg/mL
same,conc/live cell (CCL4/MIP-1 beta),[4],1291.2 pg/10^5 and 1484.5 pg/10^5 and 1514.0 pg/10^5
same,Concentration (CCL4/MIP-1 beta),"test article 10 uM, Mean",7321.1 pg/mL
same,conc/live cell (CCL4/MIP-1 beta),"test article 10 uM, Mean",1392.8 pg/10^5
same,MFI (Bead name: CCL4/MIP-1 beta),"test article 10 uM, Mean",160.3
same,MFI (Bead name: CCL4/MIP-1 beta),[5],166.0 and 153.5 and 161.5
same,Concentration (CCL4/MIP-1 beta),[5],7453.1 pg/mL and 7161.3 pg/mL and 7349.0 pg/mL
same,conc/live cell (CCL4/MIP-1 beta),[5],1380.2 pg/10^5 and 1234.7 pg/10^5 and 1563.6 pg/10^5
same,Concentration (CCL4/MIP-1 beta),"test article 100 uM, Mean",6290.1 pg/mL
same,conc/live cell (CCL4/MIP-1 beta),"test article 100 uM, Mean",1036.8 pg/10^5
same,MFI (Bead name: CCL4/MIP-1 beta),"test article 100 uM, Mean",118.5
same,MFI (Bead name: CCL4/MIP-1 beta),[6],119.0 and 121.5 and 115.0
same,Concentration (CCL4/MIP-1 beta),[6],6303.5 pg/mL and 6368.7 pg/mL and 6197.9 pg/mL
same,conc/live cell (CCL4/MIP-1 beta),[6],1033.4 pg/10^5 and 1044.1 pg/10^5 and 1033.0 pg/10^5
CC(C)C[C@H](NC(=O)[C@H](CCC(N)=O)NC(=O)CNC(=O)[C@@H]1C[C@@H](O)CN1)C(=O)NCC(=O)O [YDE-043] (H-[Hyp]GQLG-OH; N-terminus and C-terminus assumed),Concentration (CCL4/MIP-1 beta),"test article 0.001 uM, Mean",7716.4 pg/mL
same,conc/live cell (CCL4/MIP-1 beta),"test article 0.001 uM, Mean",1568.7 pg/10^5
same,MFI (Bead name: CCL4/MIP-1 beta),"test article 0.001 uM, Mean",177.7
same,MFI (Bead name: CCL4/MIP-1 beta),[1],165.5 and 185.0 and 182.5
same,Concentration (CCL4/MIP-1 beta),[1],7441.6 pg/mL and 7881.5 pg/mL and 7826.1 pg/mL
same,conc/live cell (CCL4/MIP-1 beta),[1],1691.3 pg/10^5 and 1313.6 pg/10^5 and 1701.3 pg/10^5
same,Concentration (CCL4/MIP-1 beta),"test article 0.01 uM, Mean",7755.3 pg/mL
same,conc/live cell (CCL4/MIP-1 beta),"test article 0.01 uM, Mean",1483.8 pg/10^5
same,MFI (Bead name: CCL4/MIP-1 beta),"test article 0.01 uM, Mean",179.3
same,MFI (Bead name: CCL4/MIP-1 beta),[2],178.0 and 177.0 and 183.0
same,Concentration (CCL4/MIP-1 beta),[2],7725.6 pg/mL and 7703.2 pg/mL and 7837.2 pg/mL
same,conc/live cell (CCL4/MIP-1 beta),[2],1716.8 pg/10^5 and 1167.1 pg/10^5 and 1567.4 pg/10^5
same,Concentration (CCL4/MIP-1 beta),"test article 0.1 uM, Mean",7358.9 pg/mL
same,conc/live cell (CCL4/MIP-1 beta),"test article 0.1 uM, Mean",1365.2 pg/10^5
same,MFI (Bead name: CCL4/MIP-1 beta),"test article 0.1 uM, Mean",162.0
same,MFI (Bead name: CCL4/MIP-1 beta),[3],153.5 and 159.5 and 173.0
same,Concentration (CCL4/MIP-1 beta),[3],7161.3 pg/mL and 7302.4 pg/mL and 7612.9 pg/mL
same,conc/live cell (CCL4/MIP-1 beta),[3],1432.3 pg/10^5 and 1304.0 pg/10^5 and 1359.5 pg/10^5
same,Concentration (CCL4/MIP-1 beta),"test article 1 uM, Mean",7359.3 pg/mL
same,conc/live cell (CCL4/MIP-1 beta),"test article 1 uM, Mean",1391.3 pg/10^5
same,MFI (Bead name: CCL4/MIP-1 beta),"test article 1 uM, Mean",162.3
same,MFI (Bead name: CCL4/MIP-1 beta),[4],175.0 (2×) and 137.0
same,Concentration (CCL4/MIP-1 beta),[4],7658.2 pg/ml (2×) and 6761.7 pg/ml
same,conc/live cell (CCL4/MIP-1 beta),[4],1320.4 pg/10^5 and 1408.7 pg/10^5 and 1444.9 pg/10^5
same,Concentration (CCL4/MIP-1 beta),"test article 10 uM, Mean",7298.5 pg/mL
same,conc/live cell (CCL4/MIP-1 beta),"test article 10 uM, Mean",1352.7 pg/10^5
same,MFI (Bead name: CCL4/MIP-1 beta),"test article 10 uM, Mean",159.3
same,MFI (Bead name: CCL4/MIP-1 beta),[5],159.0 and 158.0 and 161.0
same,Concentration (CCL4/MIP-1 beta),[5],7290.8 pg/mL and 7267.3 pg/mL and 7337.4 pg/mL
same,conc/live cell (CCL4/MIP-1 beta),[5],1402.1 pg/10^5 and 1345.8 pg/10^5 and 1310.3 pg/10^5
same,Concentration (CCL4/MIP-1 beta),"test article 100 uM, Mean",6094.9 pg/mL
same,conc/live cell (CCL4/MIP-1 beta),"test article 100 uM, Mean",968.2 pg/10^5
same,MFI (Bead name: CCL4/MIP-1 beta),"test article 100 uM, Mean",111.3
same,MFI (Bead name: CCL4/MIP-1 beta),[6],118.5 and 104.0
same,Concentration (CCL4/MIP-1 beta),[6],6290.4 pg/mL and 5899.5 pg/mL
same,conc/live cell (CCL4/MIP-1 beta),[6],1014.6 pg/10^5 and 921.8 pg/10^5

# Source: patent publication US20230146455A1, “TREATMENT OF INFLAMMATORY DISEASES WITH PEPTIDES AND PHARMACEUTICAL COMPOSITIONS” (Yuyu Pharma, Inc., priority 2020, published 2023)
